This experiment deals with Mitogen-activated protein kinase 10 (Homo sapiens, UniProt P53779). Kind of experiment: Inhibition of JNK3-induced transfer of [gamma33P]ATP to biotinylated ATF2 by scintillation proximity assay.

Structures are written as SMILES.

Mitogen-activated protein kinase 10, sequence (P53779 whole entry): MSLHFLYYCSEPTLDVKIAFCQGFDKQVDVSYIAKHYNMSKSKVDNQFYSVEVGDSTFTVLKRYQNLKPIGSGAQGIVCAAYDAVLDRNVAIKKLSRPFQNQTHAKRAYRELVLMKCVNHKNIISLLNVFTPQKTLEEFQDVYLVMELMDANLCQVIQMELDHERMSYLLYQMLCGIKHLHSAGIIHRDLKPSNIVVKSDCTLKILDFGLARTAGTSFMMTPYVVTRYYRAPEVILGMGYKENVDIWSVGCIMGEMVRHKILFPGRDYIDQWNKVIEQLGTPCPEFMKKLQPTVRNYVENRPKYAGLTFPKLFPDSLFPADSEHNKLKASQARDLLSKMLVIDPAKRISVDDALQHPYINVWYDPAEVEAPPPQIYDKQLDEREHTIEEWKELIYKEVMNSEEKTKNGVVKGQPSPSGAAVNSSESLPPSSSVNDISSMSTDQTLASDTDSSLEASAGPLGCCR

`Oc1cc2c(cc1O)[C@H]1Cc3cc(O)c(O)cc3[N@+]13CCc1cc(O)c(O)cc1[C@@H]3C2` [LATIFOLIAN A]: half-maximal inhibition (IC50) required 13 µM.
To `COc1cc2c(cc1O)C[C@@H]1c3cc(O)c(O)cc3C[C@H]3c4cc(O)c(O)cc4CC[N@@+]213` [LATIFOLIAN B] belongs 10 µM.

The values above are taken from ChEMBL document CHEMBL1141751, “Latifolians A and B, novel JNK3 kinase inhibitors from the Papua New Guinean plant Gnetum latifolium” (J Nat Prod, 2005).
